Assay results: patent US20230278972A1, “SUBSTITUTED HALOALKYL SULFONANILIDE HERBICIDES” (FMC Corporation, priority 2020, published 2023)

How the values were obtained:
Assay type in all cases: in vivo
[1] = system: pigweed (Amaranthus retroflexus); assay: Test A postemergence, pigweed; conditions: Postemergence
In short: (§1)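 Greenhouse pot test in a loam–sand blend; compounds delivered in a non-phytotoxic solvent carrying a surfactant, applied either as a directed spray to soil at seeding or over seedlings 2 to 10 cm high with one to two leaves.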

[2] = system: pigweed (Amaranthus retroflexus); assay: Test A preemergence, pigweed; conditions: for Plant response rating, Pigweed: 0 to 100 scale (0 no effect, 100 complete control); for Pigweed plant response rating: 125 g ai/ha, visual injury on 0 to 100 scale (0 no effect, 100 complete control), approximately 10 days
In short: (§2)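 After sowing into a sand-amended loam, pots for the preemergence test were treated by spraying directly onto soil. In parallel, seedlings at the one- to two-leaf stage and 2 to 10 cm tall were treated postemergence with the identical surfactant-containing formulation.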

[3] = system: blackgrass (Alopecurus myosuroides); assay: Test A postemergence, blackgrass; conditions: Postemergence
In short: as §1

[4] = system: Foxtail, Giant (giant foxtail, Setaria faberi); assay: Test A preemergence, Foxtail, Giant; conditions: Preemergence; for Plant response rating, Foxtail, Giant: 0 to 100 scale (0 no effect, 100 complete control); for Foxtail, Giant plant response rating: 125 g ai/ha, visual injury on 0 to 100 scale (0 no effect, 100 complete control), approximately 10 days
In short: as §1

[5] = system: barnyardgrass (Echinochloa crus-galli); assay: Test A postemergence, barnyardgrass; conditions: Postemergence
In short: as §2

[6] = system: ragweed (common ragweed, Ambrosia artemisiifolia); assay: Test A preemergence, ragweed; conditions: Preemergence; for Plant response rating, Ragweed: 0 to 100 scale (0 no effect, 100 complete control); for Ragweed plant response rating: 125 g ai/ha, visual injury on 0 to 100 scale (0 no effect, 100 complete control), approximately 10 days
In short: as §1

[7] = system: galium (catchweed bedstraw, Galium aparine); assay: Test A postemergence, galium; conditions: Postemergence
In short: as §2

corn (Zea mays) = assay: Test A postemergence, corn; conditions: Postemergence
In short: as §1

[8] = system: ragweed (common ragweed, Ambrosia artemisiifolia); assay: Test A postemergence, ragweed; conditions: Postemergence
In short: as §1

[9] = system: Foxtail, Giant (giant foxtail, Setaria faberi); assay: Test A postemergence, Foxtail, Giant; conditions: Postemergence
In short: as §1

kochia (Bassia scoparia) [10] = assay: Test A preemergence, kochia; conditions: Preemergence; for Plant response rating, Kochia: 0 to 100 scale (0 no effect, 100 complete control); for Kochia plant response rating: 125 g ai/ha, visual injury on 0 to 100 scale (0 no effect, 100 complete control), approximately 10 days
In short: as §1

kochia (Bassia scoparia) [11] = assay: Test A postemergence, kochia; conditions: Postemergence
In short: as §1

[12] = system: Ryegrass, Italian (Italian ryegrass, Lolium multiflorum); assay: Test A preemergence, Ryegrass, Italian; conditions: Preemergence; for Plant response rating, Ryegrass, Italian: 0 to 100 scale (0 no effect, 100 complete control); for Ryegrass, Italian plant response rating: 125 g ai/ha, visual injury on 0 to 100 scale (0 no effect, 100 complete control), approximately 10 days
In short: as §1

[13] = system: Ryegrass, Italian (Italian ryegrass, Lolium multiflorum); assay: Test A postemergence, Ryegrass, Italian; conditions: Postemergence
In short: as §1

[14] = system: wheat (Triticum aestivum); assay: Test A postemergence, wheat; conditions: Postemergence
In short: as §2

[15] = system: barnyardgrass (Echinochloa crus-galli); assay: Test A preemergence, barnyardgrass; conditions: Preemergence; for Plant response rating, Barnyardgrass: 0 to 100 scale (0 no effect, 100 complete control); for Barnyardgrass plant response rating: 125 g ai/ha, visual injury on 0 to 100 scale (0 no effect, 100 complete control), approximately 10 days
In short: as §1

[16] = 31 g ai/ha, visual injury on 0 to 100 scale (0 no effect, 100 complete control), approx. 10 days
[17] = 125 g ai/ha, 0 to 100 scale (0 no effect, 100 complete control)
[18] = 31 g ai/ha, visual injury, approx. 10 days
[19] = 500 g ai/ha, visual injury vs untreated controls after approx. 10 days, 0 to 100 scale (0 no effect, 100 complete control)

Cc1c(C(=O)N2CCOCC2)cc(N(S(=O)(=O)C(F)(F)F)S(=O)(=O)C(F)(F)F)c(C)c1F [Compound 174]
Plant response rating, Pigweed [1, 16]: 70 | Plant response rating, Pigweed [1, 17]: 90 | Plant response rating, Pigweed [2, 18]: 90 | Pigweed plant response rating [2]: 100 | Plant response rating, Blackgrass [3, 16]: 0 | Plant response rating, Blackgrass [3, 17]: 0 | Plant response rating, Foxtail, Giant [4, 18]: 30 | Foxtail, Giant plant response rating [4]: 90 | Plant response rating, Barnyardgrass [5, 16]: 0 | Plant response rating, Barnyardgrass [5, 17]: 60 | Plant response rating, Ragweed [6, 18]: 30 | Ragweed plant response rating [6]: 90 | Plant response rating, Galium [7, 16]: 50 | Plant response rating, Galium [7, 17]: 80 | Plant response rating, Corn (corn (Zea mays); [16]): 0 | Plant response rating, Corn (corn (Zea mays); [17]): 20 | Plant response rating, Ragweed [8, 16]: 70 | Plant response rating, Ragweed [8, 17]: 90 | Plant response rating, Foxtail, Giant [9, 16]: 0 | Plant response rating, Foxtail, Giant [9, 17]: 0 | Plant response rating, Kochia (kochia (Bassia scoparia) [10]; [18]): 40 | Kochia plant response rating (kochia (Bassia scoparia) [10]): 80 | Plant response rating, Kochia (kochia (Bassia scoparia) [11]; [16]): 10 | Plant response rating, Kochia (kochia (Bassia scoparia) [11]; [17]): 30 | Plant response rating, Ryegrass, Italian [12, 18]: 40 | Ryegrass, Italian plant response rating [12]: 60 | Plant response rating, Ryegrass, Italian [13, 16]: 0 | Plant response rating, Ryegrass, Italian [13, 17]: 0 | Plant response rating, Wheat [14, 16]: 0 | Plant response rating, Wheat [14, 17]: 0 | Plant response rating, Barnyardgrass [15, 18]: 10 | Barnyardgrass plant response rating [15]: 80

COC1CCCN(C(=O)c2cc(NS(=O)(=O)C(F)(F)F)c(C)cc2C)C1 (stereo not shown) [Compound 175]
Plant response rating, Pigweed [1, 17]: 50 | Pigweed plant response rating [1, 19]: 90 | Pigweed plant response rating [2]: 90 | Plant response rating, Pigweed ([2]; 500 g ai/ha): 100 | Plant response rating, Blackgrass [3, 17]: 0 | Blackgrass plant response rating [3, 19]: 20 | Foxtail, Giant plant response rating [4]: 100 | Plant response rating, Foxtail, Giant ([4]; 500 g ai/ha): 100 | Plant response rating, Barnyardgrass [5, 17]: 20 | Barnyardgrass plant response rating [5, 19]: 90 | Ragweed plant response rating [6]: 80 | Plant response rating, Ragweed ([6]; 500 g ai/ha): 100 | Plant response rating, Galium [7, 17]: 80 | Galium plant response rating [7, 19]: 90 | Plant response rating, Corn (corn (Zea mays); [17]): 0 | Corn plant response rating (corn (Zea mays); [19]): 10 | Plant response rating, Ragweed [8, 17]: 50 | Ragweed plant response rating [8, 19]: 90 | Plant response rating, Foxtail, Giant [9, 17]: 0 | Foxtail, Giant plant response rating [9, 19]: 30 | Kochia plant response rating (kochia (Bassia scoparia) [10]): 90 | Plant response rating, Kochia (kochia (Bassia scoparia) [10]; 500 g ai/ha): 100 | Plant response rating, Kochia (kochia (Bassia scoparia) [11]; [17]): 10 | Kochia plant response rating (kochia (Bassia scoparia) [11]; [19]): 50 | Ryegrass, Italian plant response rating [12]: 90 | Plant response rating, Ryegrass, Italian ([12]; 500 g ai/ha): 100 | Plant response rating, Ryegrass, Italian [13, 17]: 30 | Ryegrass, Italian plant response rating [13, 19]: 80 | Plant response rating, Wheat [14, 17]: 10 | Wheat plant response rating [14, 19]: 80 | Barnyardgrass plant response rating [15]: 90 | Plant response rating, Barnyardgrass ([15]; 500 g ai/ha): 100
